From patent US5340806A, “Composition containing organogermanium compound and immunity adjusting agent comprising the composition” (Sanwa Kagaku Kenkyusho Co., Ltd., priority 1984, dated 1994)

Key:
[1] = test system: spleen cells (PFC), Sarcoma 180 cancered mice; assay: Antibody production ability in cancered mouse (spleen cell PFC); type: in vivo, ICR male mice; conditions: oral for 5 days, depending on dosing amount; FIG. 9
Protocol: 2×10^6 cells of a mouse tumor cell (Sarcoma 180) were implanted under the skin of a side part of ICR male mice to form a solid cancer. The organogermanium compound (Compound No. 1 in Table 1) dissolved in 4% cattle serum albumin solution was orally dosed to the cancered mice for 5 days, after 9 days had elapsed from the implantation, 2×10^8 corpuscles of SRBC were injected in a tail vein of the mice for sensitization. After 4 days from the sensitization, spleen cells were extracted to measure of PFC therein, which was used as an index of the antibody productivity.

[2] = test system: chronic B hepatitis; assay: Chronic B hepatitis, 16 weeks, 30 mg/day/body (In Vivo Utilization Example 5); parameters: species or system human patients
[3] = test system: chronic non A non B hepatitis; assay: Chronic non A non B hepatitis, 30/60/90 mg/day, 12 weeks (Table 4B); type: in vivo, human patients
Protocol: Search on effectiveness of the organogermanium compound to chronic B and non A non B hepatitises and preferable amount of dose thereof.
Therefore, 30 mg, 60 mg and 90 mg/day/body were set. Experimental period of time was set for 12 weeks. […]

[4] = test system: chronic non A non B hepatitis; assay: Chronic non A non B hepatitis, 15/30/60 mg/day, 12 weeks (Table 5B); type: in vivo, human patients
Protocol: Search on utility or effectiveness of the organogermanium compound on patients who are infected with chronic B hepatitis, or with non A non B hepatitis, and show "positive" to HBe antigen as well as a preferable amount of dose thereof.
The amount of dose has been set as follows, by taking the results given in In Vivo Utilization Example 1 into consideration.
(a) 60 mg/day/body showing most preferable data in effectiveness,
(b) 30 mg/day/body showing effectiveness in some Experiments, and
(c) 15 mg/day/body (for taking control data).
Experimental period of time was set for 12 weeks.
(a) Examination of liver functions (GOT, GPT, total bilirubin, LDH, y-GTP, and y-globulin), and
(b) Examination with use of HBV marker (HBe-Ag).

[5] = LD50 for beagle dog; conditions: in vivo

## 3-oxygermylpropionic acid [Compound No. 1]
[1]
  ability to produce antibodies (PFC): the ability to produce antibodies recovers towards a normal level
[2]; Two-color analysis
  suppressor T lymph cell and other CD8 positive cells: A significant reduction
[2]; after 8 and 12 weeks
  HBe antigen: A significant reduction of HBe antigen
[2]; after 8 weeks
  HBe antibody: Significant increase of HBe antibody
[2]; among 33 HBe antigen positive
  patients changed to SC: 2 Patients
[2]; end of experiment, 4 patients
  patients changed from positive to negative DNA-polymerase: 14%
[2]; in vivo
  improvement in liver functions, HBe antigen positive versus negative groups: no significant difference
[2]; middle or more
  ratio of improvement in functions of liver: 30%
[2]; slight or more
  ratio of improvement in functions of liver: 50%
[3]; 30 mg/day
  Effectiveness (slight or more): 31%
  General judgement: Improvement (slight or more): 29%
  Safety (quite): 92%
  Side effect: 8.3%
[3]; 60 mg/day
  Effectiveness (slight or more): 44%
  General judgement: Improvement (slight or more): 45%
  Safety (quite): 91%
  Side effect: 8.8%
[3]; 60 mg/day, 12 weeks
  A 1-P change: .dwnarw. **
  GOT change: .dwnarw. **
  GPT change: .dwnarw. *
[3]; 90 mg/day
  Effectiveness (slight or more): 38%
  General judgement: Improvement (slight or more): 41%
  Safety (quite): 90%
  Side effect: 10.0%
[4]; 15 mg/day
  Effectiveness (slight or more): 33%
  General judgement: Improvement (slight or more): 36%
  Safety (quite): 91%
  Side effect: 9.4%
[4]; 15 mg/day, 12 weeks
  Total bilirubin change: .dwnarw. *
  γ-GPT change: .dwnarw. +
[4]; 30 mg/day
  Effectiveness (slight or more): 36%
  General judgement: Improvement (slight or more): 37%
  Safety (quite): 94%
  Side effect: 5.6%
[4]; 60 mg/day
  Effectiveness (slight or more): 55%
  General judgement: Improvement (slight or more): 57%
  Safety (quite): 95%
  Side effect: 5.4%
[4]; 60 mg/day, 12 weeks
  GOT change: .dwnarw. *
  GPT change: .dwnarw. **
  Total bilirubin change: .dwnarw. *
  γ-GPT change: .dwnarw. *
  γ-Globulin change: .dwnarw. *
[5]
  15 mg/body as fraction of LD50 for beagle dog: 1/12000
